From paper PMC7501730, “Discovery of novel small molecule inhibitors of S100P with in vitro anti-metastatic effects on pancreatic cancer cells” (European Journal of Medicinal Chemistry, 2020)

Target: T1, S100P-RAGE interaction (Homo sapiens, UniProt P25815)
T1 construct: His tag (N); made in house; host or cells: Escherichia coli BL21*
T1 sequence (P25815 1-95): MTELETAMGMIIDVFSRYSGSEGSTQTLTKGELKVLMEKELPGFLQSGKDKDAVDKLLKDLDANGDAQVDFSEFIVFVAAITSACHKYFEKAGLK
Test: ELISA of S100P-RAGE binding inhibition
Conditions: not given
Protocol: The purchased computational screening hits were subjected to initial biological testing for inhibition of S100P-RAGE binding (ELISA), with cromolyn as positive control, using an adaptation of the reported ELISA for S100 family members.
Fig. 2 Effects of compounds 1–14 on S100P binding to RAGE. Human S100P (2 μM) coated wells were incubated with increasing concentrations of the compound tested, in triplicate, and exposed to human RAGE-Fc (100 nM) followed by goat anti-human secondary antibody to detect RAGE bound S100P. Data are compared to S100P/RAGE binding with no inhibitor (DMSO, 100%) and are presented as mean ± SEM; data is significant by one way ANOVA, where ∗ = p < 0.05, ∗∗ = p < 0.01 and ∗∗∗ = p < 0.001; n = 9 from 3 plates.
To generate human S100P recombinant protein, a pQE-30 ([…]) plasmid encoding S100P with N-terminal histidine tags (gifted by Dr Igor Barsukov, Liverpool University, UK), was transformed into BL21∗ competent Escherichia coli cells. Recombinant protein was purified using a HisTrap Nickel-nitrilotriacetic acid (Ni-NTA) agarose column (GE Healthcare, UK).
Purified recombinant S100P (2μM/well) in phosphate buffer (PBS; 137 mM NaCl, 2.7 mM KCl, 10 mM Na2HPO4, 1.8 mM KH2PO4, pH 7.4; supplemented with 1 mM CaCl2, 10 μM ZnCl2, and 0.5 mM MgCl2) was used for coating a 96 well plate (NunclonDelta, Fisher), and incubated overnight at 37 °C.
Following washing, S100P non-specific binding sites were blocked with 1% bovine serum albumin (BSA; Fisher, UK) in PBS for 2 h at 37 °C. Following three washes, S100P was incubated with increasing concentrations of compounds, in parallel to cromolyn and DMSO treated wells, all in triplicate. Then 30 nM recombinant human receptor for advanced glycation end products (rh/RAGE-Fc; R&D Systems) was added and incubated for 1 h at 37 °C. Controls included a negative control (S100P protein, no RAGE-Fc), a positive control (S100P protein plus RAGE), and vehicle control (0.001% DMSO in PBS) were included in each plate. After three washes in PBS, all wells were exposed to goat anti-human HRP conjugate (1:1000; Millipore) for 1 h at 37 °C in order to detect bound receptors. Subsequent to washes, wells were incubated for 20 min in the dark with 3,3′,5,5′-tetramethylbenzidene (TMB) substrate (Sigma, UK). Plates were read at 450 nm using a Multiskan Ascent spectrophotometer (Fisher Scientific, UK). All sample readings were normalized to the positive control (S100P plus RAGE-Fc). Statistical analysis was performed and graphs plotted using the GraphPad Prism software in the following way: One Way ANOVA was used to compare the effects of concentration of each compound to the effects of vehicle control (DMSO), and p values of <0.05 were considered statistically significant. A post hoc analysis was conducted using Dunnetts multiple comparisons test; results are indicated by ∗ = p < 0.05; ∗∗ = p < 0.01 and ∗∗∗ = p < 0.001.

SMILES | IC50
COc1ccc(/C=C2/C(=O)NC(=O)N(c3ccc(Cl)c(Cl)c3)C2=O)cc1C(=O)O [Compound 3] | 0.514 nM

Same assay, conditions: ELISA

SMILES | concentration with significant inhibition of S100P-RAGE binding
O=C(O)c1cccc(N2C(=O)C3C4c5ccccc5C([N+](=O)[O-])(c5ccccc54)C3C2=O)c1 (stereo not drawn) [Compound 4, 3-(9-Nitro-12,14-dioxo-9,10-dihydro-9,10-[3,4]epipyrroloanthracen-13-yl)benzoic acid] | ≥ 10 nM
O=C1C2C3c4ccccc4C(c4ccccc43)C2C(=O)N1c1ccccc1 (stereo not drawn) [Compound 4r, 13-Phenyl-9,10-dihydro-9,10-[3,4]epipyrroloanthracene-12,14-dione] | ≤ 100 nM

Same assay, conditions: Table 1; ELISA, human S100P 2 μM coated wells, human RAGE-Fc; read-out: Estimated IC50

SMILES | IC50
O=C(O)c1cccc(N2C(=O)C3C4c5ccccc5C([N+](=O)[O-])(c5ccccc54)C3C2=O)c1 (stereo not drawn) [Compound 4, 3-(9-Nitro-12,14-dioxo-9,10-dihydro-9,10-[3,4]epipyrroloanthracen-13-yl)benzoic acid] | 22.7 nM
Cc1nc2sc3c(c2c2nc(C(=O)NCCOCCO)nn12)C[C@@H](C)CC3 [Compound 13] | 126 nM
CCCN1CCc2c(sc3c2c(NCCc2ccccc2)nc2nnnn23)C1 [Compound 14] | 77 nM
Nc1nnn(CC(=O)N/N=C/c2cccs2)n1 [Compound 9] | 7.7 nM
COc1ccc(-c2noc(CCCC(=O)O)n2)cc1 [Compound 12] | 264 nM
O=C(Cc1cc(O)n[nH]1)N/N=C/c1c(Cl)cccc1Cl [Compound 7] | 19 nM
O=C(O)CNC(=O)CCCn1c(=O)[nH]c2ccccc2c1=O [Compound 10] | 42.6 nM
O=C(O)CCNC(=O)Cn1nnc2ccccc2c1=O [Compound 11] | 6.89 nM
Cc1ccc(-c2ccc(=O)n(CC(=O)Nc3ccc(-n4cnnn4)cc3)n2)cc1 [Compound 6] | 0.555 nM
N#CCCn1cc(C(=O)Nc2ccc(C(=O)O)cc2)c(-c2ccccc2)n1 [Compound 5] | 0.6 nM

Same assay, conditions: Table 2; ELISA, analog series of hit 4; read-out: Estimated IC50

SMILES | IC50
O=C1C2C3c4ccccc4C(c4ccccc43)C2C(=O)N1c1ccccc1 (stereo not drawn) [Compound 4r, 13-Phenyl-9,10-dihydro-9,10-[3,4]epipyrroloanthracene-12,14-dione] | 0.796 nM

Same assay, conditions: Table 2; concentration with significant inhibition of S100P-RAGE binding; asterisks = significance by one-way ANOVA

SMILES | ELISA inhibition
O=C(O)c1cccc(N2C(=O)C3C4c5ccccc5C([N+](=O)[O-])(c5ccccc54)C3C2=O)c1 (stereo not drawn) [Compound 4, 3-(9-Nitro-12,14-dioxo-9,10-dihydro-9,10-[3,4]epipyrroloanthracen-13-yl)benzoic acid] | 10 nM∗∗
O=C1C2C3c4ccccc4C(c4ccccc43)C2C(=O)N1c1ccc(I)cc1 (stereo not drawn) [Compound 4x, 13-(4-iodophenyl)-9,10-dihydro-9,10-[3,4]epipyrroloanthracene-12,14-dione] | – (no significant inhibition below 1 μM)
CC(C)(C)c1ccc(N2C(=O)C3C4c5ccccc5C(c5ccccc54)C3C2=O)cc1 (stereo not drawn) [Compound 4y, 13-(4-(tert-butyl)phenyl)-9,10-dihydro-9,10-[3,4]epipyrroloanthracene-12,14-dione] | - (no significant inhibition below 1 μM)
O=C1C2C3c4ccccc4C(c4ccccc43)C2C(=O)N1c1ccccc1 (stereo not drawn) [Compound 4r, 13-Phenyl-9,10-dihydro-9,10-[3,4]epipyrroloanthracene-12,14-dione] | 10 nM∗
O=C1C2C3c4ccccc4C(c4ccccc43)C2C(=O)N1c1ccc(Cl)cc1 (stereo not drawn) [Compound 4v, 13-(4-chlorophenyl)-9,10-dihydro-9,10-[3,4]epipyrroloanthracene-12,14-dione] | – (no significant inhibition below 1 μM)
O=C1C2C3c4ccccc4C([N+](=O)[O-])(c4ccccc43)C2C(=O)N1c1ccc(Cl)cc1 (stereo not drawn) [Compound 4i, 13-(4-chlorophenyl)-9-nitro-9,10-dihydro-9,10-[3,4]epipyrroloanthracene-12,14-dione] | – (no significant inhibition below 1 μM)
CCOC(=O)c1ccc(N2C(=O)C3C4c5ccccc5C(c5ccccc54)C3C2=O)cc1 (stereo not drawn) [Compound 4t, Ethyl 4-(12,14-dioxo-9,10-dihydro-9,10-[3,4]epipyrroloanthracen-13-yl)benzoate] | – (no significant inhibition below 1 μM)
CCOC(=O)c1cccc(N2C(=O)C3C4c5ccccc5C(c5ccccc54)C3C2=O)c1 (stereo not drawn) [Compound 4n, Ethyl 3-(12,14-dioxo-9,10-dihydro-9,10-[3,4]epipyrroloanthracen-13-yl)benzoate] | – (no significant inhibition below 1 μM)
O=C1C2C3c4ccccc4C(c4ccccc43)C2C(=O)N1c1cccc(Cl)c1 (stereo not drawn) [Compound 4p, 13-(3-chlorophenyl)-9,10-dihydro-9,10-[3,4]epipyrroloanthracene-12,14-dione] | – (no significant inhibition below 1 μM)
O=C1C2C3c4ccccc4C([N+](=O)[O-])(c4ccccc43)C2C(=O)N1c1ccc([N+](=O)[O-])cc1 (stereo not drawn) [Compound 4j, 9-Nitro-13-(4-nitrophenyl)-9,10-dihydro-9,10-[3,4]epipyrroloanthracene-12,14-dione] | – (no significant inhibition below 1 μM)
CC(C)(C)c1ccc(N2C(=O)C3C4c5ccccc5C([N+](=O)[O-])(c5ccccc54)C3C2=O)cc1 (stereo not drawn) [Compound 4l, 13-(4-(tert-butyl)phenyl)-9-nitro-9,10-dihydro-9,10-[3,4]epipyrroloanthracene-12,14-dione] | - (no significant inhibition below 1 μM)
O=C1C2C3c4ccccc4C([N+](=O)[O-])(c4ccccc43)C2C(=O)N1c1ccccc1 (stereo not drawn) [Compound 4e, 9-Nitro-13-phenyl-9,10-dihydro-9,10-[3,4]epipyrroloanthracene-12,14-dione] | – (no significant inhibition below 1 μM)
O=C1C2C3c4ccccc4C([N+](=O)[O-])(c4ccccc43)C2C(=O)N1c1ccc(F)cc1 (stereo not drawn) [Compound 4h, 13-(4-fluorophenyl)-9-nitro-9,10-dihydro-9,10-[3,4]epipyrroloanthracene-12,14-dione] | – (no significant inhibition below 1 μM)
O=C1C2C3c4ccccc4C([N+](=O)[O-])(c4ccccc43)C2C(=O)N1c1ccc(I)cc1 (stereo not drawn) [Compound 4k, 13-(4-iodophenyl)-9-nitro-9,10-dihydro-9,10-[3,4]epipyrroloanthracene-12,14-dione] | – (no significant inhibition below 1 μM)
O=C1C2C3c4ccccc4C([N+](=O)[O-])(c4ccccc43)C2C(=O)N1c1cccc(Cl)c1 (stereo not drawn) [Compound 4c, 13-(3-chlorophenyl)-9-nitro-9,10-dihydro-9,10-[3,4]epipyrroloanthracene-12,14-dione] | – (no significant inhibition below 1 μM)
O=C(O)c1cccc(N2C(=O)C3C4c5ccccc5C(c5ccccc54)C3C2=O)c1 (stereo not drawn) [Compound 4m, 3-(12,14-Dioxo-9,10-dihydro-9,10-[3,4]epipyrroloanthracen-13-yl)benzoic acid] | – (no significant inhibition below 1 μM)
O=C1C2C3c4ccccc4C([N+](=O)[O-])(c4ccccc43)C2C(=O)N1c1cccc([N+](=O)[O-])c1 (stereo not drawn) [Compound 4d, 9-Nitro-13-(3-nitrophenyl)-9,10-dihydro-9,10-[3,4]epipyrroloanthracene-12,14-dione] | – (no significant inhibition below 1 μM)
O=C(O)c1ccc(N2C(=O)C3C4c5ccccc5C(c5ccccc54)C3C2=O)cc1 (stereo not drawn) [Compound 4s, 4-(12,14-Dioxo-9,10-dihydro-9,10-[3,4]epipyrroloanthracen-13-yl)benzoic acid] | – (no significant inhibition below 1 μM)
O=C1C2C3c4ccccc4C(c4ccccc43)C2C(=O)N1c1cccc([N+](=O)[O-])c1 (stereo not drawn) [Compound 4q, 13-(3-nitrophenyl)-9,10-dihydro-9,10-[3,4]epipyrroloanthracene-12,14-dione] | – (no significant inhibition below 1 μM)
O=C1C2C3c4ccccc4C(c4ccccc43)C2C(=O)N1c1ccc([N+](=O)[O-])cc1 (stereo not drawn) [Compound 4w, 13-(4-nitrophenyl)-9,10-dihydro-9,10-[3,4]epipyrroloanthracene-12,14-dione] | – (no significant inhibition below 1 μM)

Tested on: not given
Test: not given
Conditions: not given

SMILES | melting point
O=C(O)c1cccc(N2C(=O)C3C4c5ccccc5C([N+](=O)[O-])(c5ccccc54)C3C2=O)c1 (stereo not drawn) [Compound 4, 3-(9-Nitro-12,14-dioxo-9,10-dihydro-9,10-[3,4]epipyrroloanthracen-13-yl)benzoic acid] | 271 to 272 °C
O=C1C2C3c4ccccc4C(c4ccccc43)C2C(=O)N1c1ccccc1 (stereo not drawn) [Compound 4r, 13-Phenyl-9,10-dihydro-9,10-[3,4]epipyrroloanthracene-12,14-dione] | 211 to 215 °C
